Key:
[1] = tested on: human non-small cell lung cancer tumor cell strain EBC-1; experiment: In vivo anti-tumor activity in model mice with ectopically grafted EBC-1 tumor cells; details: EBC-1 subcutaneous tumors in BALB/c-nude mice; 30 mg/kg intragastric once daily for 28 days; FIG. 1
Protocol: (§1) Test Example 5: In Vivo Anti-Tumor Activity of Compounds disclosed herein in Model Mice with Ectopically Grafted Tumor Cells
(§2) 3×10^6 cells of human non-small cell lung cancer tumor cell strain EBC-1 (ATCC) were inoculated subcutaneously into BALB/c-nude model mice (Beijing AniKeeper Biotech, 10 female mice). When the subcutaneous tumors in mice each grew to 175.5 mm^3, the mice were administered intragastrically with test samples.
The mice were divided into a negative control group and an example compound group (compound of Example 3) (30 mg/kg) with 5 mice per group. The mice in the negative control group were administered with 10% solutol HS-15, which was prepared by adding 10 mL of solutol HS-15 to 90 mL of ddH2O and then mixing well by vortexing. […]
After the start of the administration, the body weight and tumor size of each mice were measured twice a week. […]
The anti-tumor efficacy was evaluated based on the growth curve of the tumor (i.e., tumor volume per measurement versus its treatment days) and relative tumor volume during treatment. The relative tumor inhibition (TGI) was calculated according to the following formula: […]
Relative tumor volume RTV was calculated as follows: RTV=[…], where V0 is the tumor volume of the animal at the time of grouping, and Vt is the tumor volume of the animal after treatment.

[2] = Body weight of EBC-1 tumor-bearing mice during treatment; assay type: in vivo; details: EBC-1 BALB/c-nude mice; 30 mg/kg intragastric once daily for 28 days; FIG. 2
Protocol: as §1, §2
The mice were divided into a negative control group and an example compound group (compound of Example 3) (30 mg/kg) with 5 mice per group. The mice in the negative control group were administered with 10% solutol HS-15, which was prepared by adding 10 mL of solutol HS-15 to 90 mL of ddH2O and then mixing well by vortexing. The mice in the example compound group were administered with a compound solution at a concentration of […] which was prepared by dissolving the compound of Example 3 in 10% solutol HS-15. The mice in both the solvent control group and the example compound group were subjected to intragastric administration once daily for 28 days at a dosage of 10 μL per gram of body weight.
After the start of the administration, the body weight and tumor size of each mice were measured twice a week. The calculation formula for tumor size is as follows: […]

CCn1cc(-c2cnc(N)c(-c3ccc(NC(=O)c4cn(C(C)C)c(C#N)c(-c5ccc(F)cc5)c4=O)cc3F)c2)cn1 [Example 3, N-(4-(2-amino-5-(1-ethyl-1H-pyrazol-4-yl)pyridin-3-yl)-3-fluoro-phenyl)-6-cyano-5-(4-fluorophenyl)-1-isopropyl-4-oxo-1,4-dihydropyridine-3-carboxamide]
tumor growth inhibition (TGI) [1]: up to 108% | body weight change of tumor-bearing mice [2]: does not change significantly
